Laboratory results as given in patent publication US10988786B2, “Mutant 4-hydroxyphenylacetate 3-hydroxylases and uses thereof” (SYMRISE AG, priority 2015, dated 2021).

B1: S462A: 4HPA3H single variant S462A (protein, listed as Escherichia coli)
chain: MKPEDFRASTQRPFTGEEYLKSLQDGREIYIYGERVKDVTTHPAFRNAAASVAQLYDALHKPEMQDSLCWNTDTGSGGYTHKFFRVAKSADDLRQQRDAIAEWSRLSYGWMGRTPDYKAAFGCALGANPGFYGQFEQNARNWYTRIQETGLYFNHAIVNPPIDRHLPTDKVKDVYIKLEKETDAGIIVSGAKVVATNSALTHYNMIGFGSAQVMGENPDFALMFVAPMDADGVKLISRASYEMVAGATGSPYDYPLSSRFDENDAILVMDNVLIPWENVLIYRDFDRCRRWTMEGGFARMYPLQACVRLAVKLDFITALLKKSLECTGTLEFRGVQADLGEVVAWRNTFWALSDSMCSEATPWVNGAYLPDHAALQTYRVLAPMAYAKIKNIIERNVTSGLIYLPSSARDLNNPQIDQYLAKYVRGSNGMDHVQRIKILKLMWDAIGSEFGGRHELYEINYAGSQDEIRLQCLRQAQNSGNMDKMMAMVDRCLSEYDQDGWTVPHLHNNDDINMLDKLLK
modifications: 4HPA3H HpaB S462A
B2: M293P: 4HPA3H single variant M293P (protein, listed as Escherichia coli)
chain: MKPEDFRASTQRPFTGEEYLKSLQDGREIYIYGERVKDVTTHPAFRNAAASVAQLYDALHKPEMQDSLCWNTDTGSGGYTHKFFRVAKSADDLRQQRDAIAEWSRLSYGWMGRTPDYKAAFGCALGANPGFYGQFEQNARNWYTRIQETGLYFNHAIVNPPIDRHLPTDKVKDVYIKLEKETDAGIIVSGAKVVATNSALTHYNMIGFGSAQVMGENPDFALMFVAPMDADGVKLISRASYEMVAGATGSPYDYPLSSRFDENDAILVMDNVLIPWENVLIYRDFDRCRRWTPEGGFARMYPLQACVRLAVKLDFITALLKKSLECTGTLEFRGVQADLGEVVAWRNTFWALSDSMCSEATPWVNGAYLPDHAALQTYRVLAPMAYAKIKNIIERNVTSGLIYLPSSARDLNNPQIDQYLAKYVRGSNGMDHVQRIKILKLMWDAIGSEFGGRHELYEINYSGSQDEIRLQCLRQAQNSGNMDKMMAMVDRCLSEYDQDGWTVPHLHNNDDINMLDKLLK
modifications: 4HPA3H HpaB M293P

Key:
wild-type 4HPA3H = biological target: T1, wild-type 4HPA3H (Escherichia coli, UniProt Q57160); experiment: In vitro hydroxylation by the 4HPA3H/PrnF/FDH system, wild-type 4HPA3H; type: biochemical, E. coli; conditions: substrate 1 mM, purified wild-type 4HPA3H, optimized conditions
T1 construct: made in house; host or cells: E. coli BL21(DE3)
Procedure: Purified 4HPA3H (A) or variants (B) (Y301I depicted in white and Y301F/S462A depicted in black) were used for conversion of substrates (1 mM) under optimized conditions. The numbers correspond to substrates as explained in the legend for FIG. 1 above.
In order to develop an effective and low-cost enzyme system for in vitro hydroxylation, several parameters of the 4HPA3H reaction with respect to maximum reaction rate were optimized. By means of a spectrophotometric assay (Example 4 above), the inventors screened different buffer systems and optimized the concentration of the components p-coumaric acid (1 cf. FIG. 1), FAD, NADH and methanol, the incubation temperature and oxygen transfer (i.e. by variation of the shaking frequency) (optimum conditions are given in the Experimental Section). […] In contrast to the cofactors, the accompanying cofactor recycling redox enzymes PrnF and FDH were used in excess due to their high specific activity.
In accordance with the whole-cell transformation experiments (FIG. 3), product yields in the conversion by the wild-type 4HPA3H (FIG. 8A) ranged from high (1, 13, 15 cf. FIG. 1) or moderate (5 cf. FIG. 1) to low (9, 11 cf. FIG. 1), whereas ferulic acid 3 was not oxidized. […] However, in contrast to the experiments with life biocatalysts […] conversion of naringenin (7 cf. FIG. 1) by the wild-type 4HPA3H (25% yield) was observed (which might be explained by increased substrate availability). The hydroxycarbazole (11) was not accepted by the double variant Y301F/S462A, probably because of the high substrate concentration which seems to reflect strong […] inhibition—an effect which has previously been observed for other 4HPA3H enzymes. Noteworthy, HPLC analysis of the reaction products confirmed product specificity.

4HPA3H = biological target: T2, 4HPA3H (Escherichia coli, UniProt Q57160); experiment: Whole-cell hydroxylation, cells expressing wild-type 4HPA3H; type: cell-based, E. coli; conditions: BL21(DE3) cells expressing wild-type 4HPA3H
T2 construct: expressed in transfected cells; host or cells: E. coli BL21(DE3)

[1] = biological target: T3, 4HPA3H-Y301F/S462A (SEQ ID NO:175) (Escherichia coli, UniProt Q57160, S462A/Y301F); experiment: Solid phase-based cascade (Talon column), hydroxylation of naringenin to eriodictyol; type: biochemical, E. coli
T3 construct: made in house; host or cells: E. coli BL21(DE3)
Procedure: Stock solutions of […] and eriodictyol (10 mM each) in methanol were produced (for the structure of the compounds, see FIG. 9). They were diluted using acetonitrile for obtaining the desired concentrations (70, 110, 140, 210 and 280 μM). 10 μl of each sample was injected in to a HPLC machine and calibration curves were produced for both substances (data not shown).
First the catalysis was performed using 9 mU oxidase 4HPA3H in a 10 ml reaction comprising 1 ml 1M Tris/HCl, pH 7.5; 25 μl of a 10 mM NADH solution, 20 μl of a 5 mM FAD solution and 1 ml formate solution using 9 mU 4HPA3H-Y301F/S462A (SEQ ID NO:175) and 0.57 mU PrnF-reductase (SEQ ID NO:176) and 640 mU FDH (SEQ ID NO:177). Subsequently the enzymes were mixes, 100 μl 1M Tris/HCl solution, pH 7.5, was added and ddH2O (deionized, reverse osmosis) was added ad 2 ml. The enzyme solution was at least 5 times passed through a 1 ml Talon column with a flow rate of 0.1 ml/min^−1 to let the proteins bind to the column in a homogenous way. The evaluation of the complete binding of the proteins to the column material was measured via Bradford assay. Then, the column was washed once with 50 mM Tris/HCl, pH 7.5 (=basis buffer), and connected to a peristaltic pump.
The constituents of each reaction mixture were transferred to a suitable sterile flask, which was then connected to a peristaltic pump. During reaction, the reaction mixture was slightly stirred with the help of a magnetic stirrer. Using a flow rate of 1 ml/min, the system was washed with the basis buffer for 2 min and a control sample was taken. Only then, the substrate was added, here 200 μM naringenin (from a 10 mM stock solution in methanol). The substrate was pumped over the Talon column having the enzymes bound thereto with a flow rate of 1 ml/min at maximum. During the time range from 0-1310 min, the sample extraction was performed in samples of 35 μl each. Said samples were mixed with an equal volume of acetonitrile and were immediately injected into a HPLC device (20 μl each). The evaluation was conducted with the help of a calibration curve done at the beginning of the experiment and thereby measuring and calculating the peak areas (see FIG. 10).
The same assay was performed using 35 mU hydroxylase/1 ml column volume and the concentration of the co-enzymes for regeneration of the cofactor was increased equivalently.

[2] = Whole-cell hydroxylation, variants compared with wild-type on well-accepted substrates; conditions: whole cells
Procedure: Substrates (200 μM) as shown in FIG. 1 were added to suspensions of bacterial cells expressing 4HPA3H or its single (A) and double variants (B). After incubation for 16 hours, catechols and residual substrates were extracted and analyzed by HPLC
Suspensions of the cells were tested for hydroxylation of a panel of eight phenolic compounds (FIG. 1) which belong to different classes of natural products: we included (I) phenolic acids and ketones such as p-coumaric acid (1), ferulic acid (3), rheosmin (15) and p-hydroxybenzoic acid (9), (II) polycyclic compounds such as the hydroxycoumarin umbelliferone (13), the stilbene resveratrol (5) and the flavonoid naringenin (7). […] 4HPA3H was also tested for conversion of 4-methoxycinnamic acid and 4-aminocinnamic acid.

Molecule	product yield (wild-type 4HPA3H)	acceptance as substrate (4HPA3H)	also measured
Oc1ccc(C=Cc2cc(O)cc(O)c2)cc1 [Compound 5, resveratrol]	moderate	–	–
O=C(O)/C=C/c1ccc(O)cc1 [Compound 1, p-coumaric acid]	high	high efficiency	–
COc1cc(/C=C/C(=O)O)ccc1O [Compound 3, ferulic acid]	not oxidized	not accepted	–
Nc1ccc(C=CC(=O)O)cc1 [4-aminocinnamic acid]	–	no substrates	–
O=C(O)c1ccc(O)cc1 [Compound 9, p-hydroxybenzoic acid]	low	–	–
O=c1ccc2ccc(O)cc2o1 [Compound 13, umbelliferone]	high	–	–
COc1ccc(C=CC(=O)O)cc1 [4-methoxycinnamic acid]	–	no substrates	–
O=C1C[C@@H](c2ccc(O)c(O)c2)Oc2cc(O)cc(O)c21 [Compound 8, eriodictyol]	–	–	biocatalytic formation of eriodictyol ([1]; 9 mU enzyme/1 ml column, 200 μM naringenin, after 1290 min): 42.4 µM; eriodictyol yielded ([1]; 35 mU hydroxylase/1 ml column volume, after 240 min): 67.7 µM
CC(=O)CCc1ccc(O)cc1 [Compound 15, rheosmin]	high	–	conversion / yield of catechol product (4HPA3H; substrate 200 μM, 16 hours, HPLC): 100%
B1	–	–	activity towards substrates 1, 13, 15 compared with wild-type enzyme [2]: comparably active
B2	–	–	activity towards substrates 1, 13, 15 compared with wild-type enzyme [2]: reduced activity
